Laboratory results taken from ChEMBL document CHEMBL1122946, “Folate antagonists. 21. Synthesis and antimalarial properties of 2,4-diamino-6-(benzylamino)pyrido[3,2-d]pyrimidines” (1985).

Tests used:
Mus musculus [1] = assay: Mean survival time against trophozoite induced Plasmodium berghei in mice minus control was evaluated at a dose 20 mg/kg.; assay type: functional
Mus musculus [2] = assay: Mean survival time against trophozoite induced Plasmodium berghei in mice minus control was evaluated at a dose 2.5 mg/kg.; assay type: functional
Mus musculus [3] = assay: Mean survival time against trophozoite induced Plasmodium berghei in mice minus control was evaluated at a dose 1.25 mg/kg.; assay type: functional
Mus musculus [4] = assay: Mean survival time against trophozoite induced Plasmodium berghei in mice minus control was evaluated at a dose 10 mg/kg.; assay type: functional
Mus musculus [5] = assay: Mean survival time against trophozoite induced Plasmodium berghei in mice minus control was evaluated at a dose 160 mg/kg; 5 cured at 60 days postinjection.; assay type: functional, organism-based; design: dose 160 mg/kg
Mus musculus [6] = assay: Mean survival time against trophozoite induced Plasmodium berghei in mice minus control was evaluated at a dose 640 mg/kg; 1 cured and 2 toxic death; assay type: functional, organism-based; design: dose 640 mg/kg
Mus musculus [7] = assay: Mean survival time against trophozoite induced Plasmodium berghei in mice minus control was evaluated at a dose 80 mg/kg; 3 cured at 60 days postinjection.; assay type: functional, organism-based; design: dose 80 mg/kg
Mus musculus [8] = assay: Mean survival time against trophozoite induced Plasmodium berghei in mice minus control was evaluated at a dose 40 mg/kg; 1 cured at 60 days postinjection.; assay type: functional, organism-based; design: dose 40 mg/kg
Mus musculus [9] = assay: Mean survival time against trophozoite induced Plasmodium berghei in mice minus control was evaluated at a dose 320 mg/kg; 2 cured and 3 toxic death; assay type: functional, organism-based; design: dose 320 mg/kg
Mus musculus [10] = assay: Mean survival time against trophozoite induced Plasmodium berghei in mice minus control was evaluated at a dose 5 mg/kg.; assay type: functional
Mus musculus [11] = assay: Mean survival time against trophozoite induced Plasmodium berghei in mice minus control was evaluated at a dose 80 mg/kg.; assay type: functional
Mus musculus [12] = assay: Mean survival time against trophozoite induced Plasmodium berghei in mice minus control was evaluated at a dose 320 mg/kg.; assay type: functional
Mus musculus [13] = assay: Mean survival time against trophozoite induced Plasmodium berghei in mice minus control was evaluated at a dose 160 mg/kg.; assay type: functional
Mus musculus [14] = assay: Mean survival time against trophozoite induced Plasmodium berghei in mice minus control was evaluated at a dose 40 mg/kg.; assay type: functional
Mus musculus [15] = assay: Mean survival time against trophozoite induced Plasmodium berghei in mice minus control was evaluated at a dose 640 mg/kg; 7 survived out of 10 animals at 60 days postinjection.; assay type: functional, organism-based; design: dose 640 mg/kg
Mus musculus [16] = assay: Mean survival time against trophozoite induced Plasmodium berghei in mice minus control was evaluated at a dose 80 mg/kg; 5 survived out of 5 animals at 60 days postinjection; assay type: functional, organism-based; design: dose 80 mg/kg
Mus musculus [17] = assay: Mean survival time against trophozoite induced Plasmodium berghei in mice minus control was evaluated at a dose 40 mg/kg; 4 survived out of 10 animals at 60 days postinjection; assay type: functional, organism-based; design: dose 40 mg/kg
Mus musculus [18] = assay: Mean survival time against trophozoite induced Plasmodium berghei in mice minus control was evaluated at a dose 160 mg/kg; 2 toxic death occurred out of 10 animals on days 2-5 after injection; assay type: functional, organism-based; design: dose 160 mg/kg
Mus musculus [19] = assay: Mean survival time against trophozoite induced Plasmodium berghei in mice minus control was evaluated at a dose 640 mg/kg; 10 toxic death occurred out of 10 animals on days 2-5 after injection; assay type: functional, organism-based; design: dose 640 mg/kg
Mus musculus [20] = assay: Mean survival time against trophozoite induced Plasmodium berghei in mice minus control was evaluated at a dose 320 mg/kg; 3 toxic death occurred out of 5 animals on days 2-5 after injection; assay type: functional, organism-based; design: dose 320 mg/kg
Mus musculus [21] = assay: Mean survival time against trophozoite induced Plasmodium berghei in mice minus control was evaluated at a dose 40 mg/kg; 4 survived out of 10 animals at 60 days postinjection.; assay type: functional, organism-based; design: dose 40 mg/kg
Mus musculus [22] = assay: Mean survival time against trophozoite induced Plasmodium berghei in mice minus control was evaluated at a dose 320 mg/kg; 10 survived out of 10 animals at 60 days postinjection.; assay type: functional, organism-based; design: dose 320 mg/kg
Mus musculus [23] = assay: Mean survival time against trophozoite induced Plasmodium berghei in mice minus control was evaluated at a dose 640 mg/kg; 5 survived out of 5 animals at 60 days postinjection.; assay type: functional, organism-based; design: dose 640 mg/kg
Mus musculus [24] = assay: Mean survival time against trophozoite induced Plasmodium berghei in mice minus control was evaluated at a dose 160 mg/kg; 10 survived out of 10 animals at 60 days postinjection.; assay type: functional, organism-based; design: dose 160 mg/kg
Mus musculus [25] = assay: Mean survival time against trophozoite induced Plasmodium berghei in mice minus control was evaluated at a dose 80 mg/kg; 10 survived out of 10 animals at 60 days postinjection.; assay type: functional, organism-based; design: dose 80 mg/kg
Mus musculus [26] = assay: Mean survival time against trophozoite induced Plasmodium berghei in mice minus control was evaluated at a dose 640 mg/kg; 5 toxic death occurred out of 5 animals on days 2-5 after injection.; assay type: functional, organism-based; design: dose 640 mg/kg
Mus musculus [27] = assay: Mean survival time against trophozoite induced Plasmodium berghei in mice minus control was evaluated at a dose 640 mg/kg.; assay type: functional
Mus musculus [28] = assay: Mean survival time against trophozoite induced Plasmodium berghei in mice minus control was evaluated at a dose 40 mg/kg; 1 survived occurred on days 2-5 after injection; assay type: functional
Mus musculus [29] = assay: Mean survival time against trophozoite induced Plasmodium berghei in mice minus control was evaluated at a dose 80 mg/kg; 2 survived occurred on days 2-5 after injection.; assay type: functional
Mus musculus [30] = assay: Mean survival time against trophozoite induced Plasmodium berghei in mice minus control was evaluated at a dose 80 mg/kg; 2 survived occurred on days 2-5 after injection; assay type: functional, organism-based; design: dose 80 mg/kg
Mus musculus [31] = assay: Mean survival time against trophozoite induced Plasmodium berghei in mice minus control was evaluated at a dose 640 mg/kg; 5 toxic death occurred on days 2-5 after injection; assay type: functional, organism-based; design: dose 640 mg/kg
Mus musculus [32] = assay: Mean survival time against trophozoite induced Plasmodium berghei in mice minus control was evaluated at a dose 320 mg/kg; 2 toxic death and 3 survived occurred on days 2-5 after injection; assay type: functional, organism-based; design: dose 320 mg/kg
Mus musculus [33] = assay: Mean survival time against trophozoite induced Plasmodium berghei in mice minus control was evaluated at a dose 160 mg/kg; 5 survived occurred on days 2-5 after injection; assay type: functional, organism-based; design: dose 160 mg/kg
Mus musculus [34] = assay: Mean survival time against trophozoite induced Plasmodium berghei in mice minus control was evaluated at a dose 40 mg/kg; assay type: functional
Mus musculus [35] = assay: Mean survival time against trophozoite induced Plasmodium berghei in mice minus control was evaluated at a dose 160 mg/kg; assay type: functional
Mus musculus [36] = assay: Mean survival time against trophozoite induced Plasmodium berghei in mice minus control was evaluated at a dose 320 mg/kg; 5 survived out of 5 animals at 60 days postinjection.; assay type: functional, organism-based; design: dose 320 mg/kg
Mus musculus [37] = assay: Mean survival time against trophozoite induced Plasmodium berghei in mice minus control was evaluated at a dose 80 mg/kg; 5 survived out of 5 animals at 60 days postinjection.; assay type: functional, organism-based; design: dose 80 mg/kg
Mus musculus [38] = assay: Mean survival time against trophozoite induced Plasmodium berghei in mice minus control was evaluated at a dose 40 mg/kg; 5 survived out of 5 animals at 60 days postinjection.; assay type: functional, organism-based; design: dose 40 mg/kg
Mus musculus [39] = assay: Mean survival time against trophozoite induced Plasmodium berghei in mice minus control was evaluated at a dose 160 mg/kg; 5 survived out of 5 animals at 60 days postinjection.; assay type: functional, organism-based; design: dose 160 mg/kg
Mus musculus [40] = assay: Mean survival time against trophozoite induced Plasmodium berghei in mice minus control was evaluated at a dose 20 mg/kg; 3 survived out of 5 animals at 60 days postinjection; assay type: functional, organism-based; design: dose 20 mg/kg

In the case of `CCc1nc(N)nc(N)c1-c1ccc(Cl)cc1` [PYRIMETHAMINE], the “Delta MST” value (Mus musculus [1]) is reported as 7.7 days, the “Delta MST” value (Mus musculus [2]) is reported as 4.7 days and the “Delta MST” value (Mus musculus [3]) is reported as 3.1 days. The “Delta MST” value (Mus musculus [4]) was 6.1 days, the “Delta MST” value (Mus musculus [5]) was “Survivals 5” and the “Delta MST” value (Mus musculus [6]) was “Survivals 1 Toxic Deaths 2”. For the same compound, the “Delta MST” value (Mus musculus [7]) was “Survivals 3”, the “Delta MST” value (Mus musculus [8]) was “Survivals 1” and the “Delta MST” value (Mus musculus [9]) was “Survivals 2 Toxic deaths 3”. For the same compound, the “Delta MST” value (Mus musculus [10]) was 5.3 days.

For `Nc1nc(N)c2nc(NCc3ccc(Cl)c(Cl)c3)ccc2n1`, the “Delta MST” value (Mus musculus [11]) was 4.9 days, the “Delta MST” value (Mus musculus [1]) was 0.5 days and the “Delta MST” value (Mus musculus [12]) was 15.3 days. For the same compound, the “Delta MST” value (Mus musculus [13]) was 12.4 days, the “Delta MST” value (Mus musculus [14]) was 1.8 days and the “Delta MST” value (Mus musculus [15]) was “Survivals 7/10”.

With `CCN(Cc1ccccc1)c1ccc2nc(N)nc(N)c2n1` the “Delta MST” value (Mus musculus [1]) was 9.7 days, the “Delta MST” value (Mus musculus [16]) was “Survivals 5/5” and the “Delta MST” value (Mus musculus [17]) was “Survivals 4/10”. For the same compound, the “Delta MST” value (Mus musculus [18]) was “Toxic Deaths 2/10”, the “Delta MST” value (Mus musculus [19]) was “Toxic Deaths 10/10” and the “Delta MST” value (Mus musculus [20]) was “Toxic Deaths 3/5”.

For `Nc1nc(N)c2cc(N(C=O)Cc3ccc(Cl)c(Cl)c3)ccc2n1`, the “Delta MST” value (Mus musculus [21]) was “Survivals 4/10”, the “Delta MST” value (Mus musculus [1]) was 8.2 days and the “Delta MST” value (Mus musculus [22]) was “Survivals 10/10”. For the same compound, the “Delta MST” value (Mus musculus [23]) was “Survivals 5/5”, the “Delta MST” value (Mus musculus [4]) was 4.3 days and the “Delta MST” value (Mus musculus [24]) was “Survivals 10/10”. For the same compound, the “Delta MST” value (Mus musculus [25]) was “Survivals 10/10”.

With `Nc1nc(N)c2nc(N3CCCCC3)ccc2n1` the “Delta MST” value (Mus musculus [13]) was 0.4 days, the “Delta MST” value (Mus musculus [14]) was 0.3 days and the “Delta MST” value (Mus musculus [26]) was “Toxic Deaths 5/5”.

In the case of `CCN(Cc1ccc(Cl)cc1)c1ccc2nc(N)nc(N)c2n1`, the “Delta MST” value (Mus musculus [27]) is reported as 1.1 days, the “Delta MST” value (Mus musculus [13]) is reported as 0.9 days and the “Delta MST” value (Mus musculus [14]) is reported as 0.9 days.

With `CC1(C)N=C(N)N=C(N)N1c1ccc(Cl)cc1.Cl` [CHLORCYCLOGUANIL HYDROCHLORIDE] the “Delta MST” value (Mus musculus [1]) was 7.9 days, the “Delta MST” value (Mus musculus [28]) was 13.4 days and the “Delta MST” value (Mus musculus [29]) was 21.6 days. The “Delta MST” value (Mus musculus [30]) was “Survivals 2”, the “Delta MST” value (Mus musculus [4]) was 4.9 days and the “Delta MST” value (Mus musculus [31]) was “Toxic Deaths 5”. For the same compound, the “Delta MST” value (Mus musculus [32]) was “Survivals 3 Toxic Deaths 2” and the “Delta MST” value (Mus musculus [33]) was “Survivals 5”.

With `CN(Cc1ccc(Cl)cc1)c1ccc2nc(N)nc(N)c2n1` the “Delta MST” value (Mus musculus [34]) was 1.1 days, the “Delta MST” value (Mus musculus [27]) was 1.3 days and the “Delta MST” value (Mus musculus [35]) was 1.1 days.

With `CN(Cc1cccc(Cl)c1)c1ccc2nc(N)nc(N)c2n1` the “Delta MST” value (Mus musculus [36]) was “Survivals 5/5”, the “Delta MST” value (Mus musculus [37]) was “Survivals 5/5” and the “Delta MST” value (Mus musculus [23]) was “Survivals 5/5”. The “Delta MST” value (Mus musculus [38]) was “Survivals 5/5”, the “Delta MST” value (Mus musculus [39]) was “Survivals 5/5” and the “Delta MST” value (Mus musculus [40]) was “Survivals 3/5”.
